# From patent publication US20140371258A1 (priority 2010, published 2014)
# “Also recorded” adds a separate entry of the source. Where two headings read alike, the source gives them in different places.
# How the values were obtained:
# HT29 human colon tumor = experiment: HT29 colorectal cancer xenograft efficacy study; settings: for Non-Specific Deaths / Regressions (100%) / Tumor Free on Day 99: 10 animals per group; for Growth Delay (T-C): based on median days to 1000 mg
# Description: Six-weeks-old female athymic NCr-nu/nu mice were purchased from Charles River Laboratories, Inc. (Wilmington, Mass.) and acclimated in the laboratories for nine days prior to experimentation. The mice were housed in microisolator cages, up to five animals per cage. Each animal in the cage was identified by an ear punch. All mice were on a 12-hour light/dark cycle and received filtered municipal water and sterilizable rodent diet (Harlan-Teklad TD8656) ad libitum. Cages were changed twice weekly. The animals were observed daily and clinical signs were noted.
# Thirty-to-forty mg fragments of HT29 human colon tumor, propagated in an in vivo passage, were implanted sc on the right flank area of mice using a12-gauge trocar needle. The day of tumor implantation was designated as Day 0. […] A sufficient number of mice were implanted so that animals with tumors in a weight range as narrow as possible were selected for the trial on the day of treatment initiation (Day 14 after tumor implantation). Those animals selected with tumors in the proper size range on Day 14 were placed in several large cages and then assigned randomly to the various treatment groups.
# The lower dosage was achieved by further dilution with saline. The dosing solutions were treated as light-sensitive (formulated under amber lights and dispensed into brown bottles), stored at room temperature, and administered within 2 h of formulation. […] The lower dosage was achieved by further dilution with saline. The dosing solutions were treated as light-sensitive (formulated under amber lights and dispensed into brown bottles), were stored at room temperature, and were administered within 2 h of formulation. Topotecan was prepared at a concentration of 1.0 mg/mL on each day of treatment in saline. The lower dosages were achieved by further dilutions with saline. The dosing solutions were treated as light-sensitive (formulated under amber lights and dispensed into brown bottles), were kept on ice, and were administered within 30 min of formulation. Saline was obtained from Phoenix Pharmaceutical, Inc.
# The study consisted of a vehicle-treated control group and seven treatment groups with ten mice each for a total of 80 mice at the start of treatment. […] The control group was treated intravenously with saline on the same treatment schedule. All treatments were administered by exact body weight with the injection volume being 0.2 mL/10 g of body weight.
# Tumors were measured (the limit of detection being 32 mg (4×4 mm)) and the animals were weighed twice weekly starting with the first day of treatment. Tumor volume was determined by caliper measurements (mm) and using the formula for an ellipsoid sphere: L×W^2/2=mm^3, where L and W refer to the larger and smaller perpendicular dimensions collected at each measurement. This formula is also used to calculate tumor weight, assuming unit density (1 mm^3=1 mg). Individual tumor and body weight measurements were collected.
# Number of non-specific deaths, number of complete tumor regressions, number of tumor-free survivors on Day 99, and median number of days for the tumors in each group to reach 1,000 mg were calculated. The median time (in days) to reach 1,000 mg was used in the calculation of the overall delay in the growth of the median tumor (T-C; T=treated group; C=control group). Individual tumor weights, group median tumor weights, TIC (%) based on median tumor weights, group mean tumor weights, standard error of the mean tumor weights, the time for the individual animal's tumor to reach 1,000 mg, individual body weights, mean body weights, and the change in mean body weights relative to the mean body weight on the first day of collection (in grams and as a percent) were collected.
# [1] = humans, cited from earlier work
# Single-dose MTD study = experiment: Single-dose MTD study; set-up: species or system mice; settings: mouse, in vivo, intravenous, topotecan-equivalent
# [2] = Maximum tolerated dose (tolerance) study, Q4D×3 iv; format: in vivo, female athymic NCr-nu/nu mice
# [3] = tested on: human NCI-H460 lung tumor; experiment: NCI-H460 lung tumor xenograft efficacy study; format: in vivo
# Description: The purpose of the study was to evaluate the antitumor efficacy of exemplary PEG topotecan conjugates along with unmodified topotecan when administered against subcutaneously (sc) implanted human NCI-H460 lung tumor xenografts in male athymic nude mice.
# Six-weeks-old male athymic nude mice were purchased from Charles River (Wilmington, Mass.) and acclimated in the laboratories prior to experimentation. […] Cages were changed twice weekly.
# Thirty-to-forty mg fragments of human NCI-H460 lung tumor were implanted sc in mice near the right axillary area using a 12-gauge trocar needle and allowed to grow.
# On each day of injection, a 15.625 mg/mL solution of PEG-topotecan (the amount of PEG-topotecan being 31.25 times the topotecan dosage) was prepared in saline. A portion of this solution was diluted with saline to the lower concentrations. All three solutions were quite viscous. A 0.5 mg/mL solution of topotecan was prepared in saline on each day of treatment. Lower dosages were achieved by diluting this solution with saline. All dosing solutions were administered by exact body weight using an injection volume of 0.2 mL/10 g of body weight. Both PEG-topotecan and topotecan solutions were prepared in subdued light with PEG-topotecan injected within two hours of preparation and topotecan injected within 30 minutes of preparation.
# The experiment consisted of six treatment groups of ten mice per group and one vehicle-treated control group also with ten mice for a total of 70 mice on the first day of treatment. Both PEG-topotecan and topotecan were administered intravenously (iv) as three injections given four days apart (q4d×3) at dosages of 10, 2.5, and 1 mg/kg/dose. The control group (group 1) was treated with the vehicle (saline), which was also administered iv q4d×3.
# The study was terminated 55 days after tumor implantation. Any animal whose tumor became ulcerated or reached 4,000 mg was euthanized prior to study termination.
# [4] = mouse, in vivo, iv
# Description: (§1) The experiment consisted of 3 treatment groups of 36 mice per group plus an untreated group of 3 mice for a total of 39 mice on the day of treatment. […] The above ‘topotecan-equivalent’ concentrations were calculated based on the topotecan content for each compound. […] At intervals (0.5, 1, 2, 4, 8, 12, 24, 72, 120, 168, 216 hr) following drug administration, 3 animals per treatment group were sacrificed, blood collected via cardiac puncture, and tumor tissue was excised. Tumor tissue was flash frozen and stored at −80° C. until analysis. Blood was processed to obtain plasma and stabilizers added as described for PK studies in beagle dogs. Samples were frozen and stored at −80° C. until analysis.
# (§2) Plasma and tumor-tissue were analyzed by LC/MS-MS for topotecan. Data was reported as ng/mL for plasma samples and ng/mg for tumor samples.
# in vivo = settings: mouse, iv
# Description: as §1, §2
# [5] = tested on: human NCI-H460 lung tumor; experiment: H460 tumor growth after a single IV administration; format: in vivo; settings: single iv injection at each compound's MTD; FIG. 7
# Description: Six-weeks-old female athymic nude mice were purchased from Charles River (Wilmington, Mass.) and acclimated in the laboratories prior to experimentation. […] The animals were observed daily and clinical signs were noted.
# Thirty-to-forty mg fragments of human NCI-H460 lung tumor were implanted sc in mice near the right axillary area using a 12-gauge trocar needle and allowed to grow. The day of tumor implantation was designated as day −7. Tumors were allowed to reach 100-234 mg in weight (100-234 mm^3 in size) before the start of treatment. A sufficient number of mice were implanted so that tumors in a weight range as narrow as possible were selected for the trial on the day of treatment initiation (day 7 after tumor implantation). […]
# The experiment consisted of 3 treatment groups of 36 mice per group plus an untreated group of 3 mice for a total of 39 mice on the day of treatment. […] The above ‘topotecan-equivalent’ concentrations were calculated based on the topotecan content for each compound. […]
# The sc tumors were measured and the animals were weighed twice weekly starting with the first day of treatment. Tumor volume was determined by caliper measurements (mm) and using the formula for an ellipsoid sphere: L×W^2/2=mm^3, where L and W refer to the larger and smaller perpendicular dimensions collected at each measurement. […]
compound,measurement,setting,value
"CC[C@@]1(O)C(=O)OCc2c1cc1n(c2=O)Cc2cc3c(CN(C)C)c(O)ccc3nc2-1 [topotecan, (S)-10-[(dimethylamino)methyl]-4-ethyl-4,9-dihydroxy-1H-pyrano[3′,4′:6,7]indolizino[1,2-b]quinoline-3,14(4H,12H)-dione]",Median Days to 1000 mg,HT29 human colon tumor; 7.5 mg/kg/inj iv Q4Dx3(14),38.5 days
same,Non-Specific Deaths,HT29 human colon tumor; 7.5 mg/kg/inj iv Q4Dx3(14),0
same,Regressions (100%),HT29 human colon tumor; 7.5 mg/kg/inj iv Q4Dx3(14),0
same,Tumor Free on Day 99,HT29 human colon tumor; 7.5 mg/kg/inj iv Q4Dx3(14),0
same,Growth Delay (T-C),HT29 human colon tumor; 7.5 mg/kg/inj iv Q4Dx3(14),4.4 days
same,Median Days to 1000 mg,HT29 human colon tumor; 15 mg/kg/inj iv Q4Dx3(14),46.8 days
same,Non-Specific Deaths,HT29 human colon tumor; 15 mg/kg/inj iv Q4Dx3(14),two
same,Regressions (100%),HT29 human colon tumor; 15 mg/kg/inj iv Q4Dx3(14),0
same,Tumor Free on Day 99,HT29 human colon tumor; 15 mg/kg/inj iv Q4Dx3(14),0
same,Non-Specific Deaths,"HT29 human colon tumor; 15 mg/kg/inj iv Q4Dx3(14), listed as Top",2
same,Growth Delay (T-C),HT29 human colon tumor; 15 mg/kg/inj iv Q4Dx3(14),12.7 days
same,Median Days to 1000 mg,HT29 human colon tumor; 20 mg/kg/inj iv Q4Dx3(14),49.9 days
same,Non-Specific Deaths,HT29 human colon tumor; 20 mg/kg/inj iv Q4Dx3(14),two
same,Regressions (100%),HT29 human colon tumor; 20 mg/kg/inj iv Q4Dx3(14),0
same,Tumor Free on Day 99,HT29 human colon tumor; 20 mg/kg/inj iv Q4Dx3(14),0
same,Non-Specific Deaths,"HT29 human colon tumor; 20 mg/kg/inj iv Q4Dx3(14), listed as Top",2
same,Growth Delay (T-C),HT29 human colon tumor; 20 mg/kg/inj iv Q4Dx3(14),15.8 days
same,inhibition of growth of HT29 human colon tumor xenografts,HT29 human colon tumor; dosage of 7.5 mg/kg/inj iv Q4D×3,minimally effective
same,inhibition of growth of HT29 human colon tumor xenografts,HT29 human colon tumor; dosages of 20 and 15 mg/kg/inj iv Q4D×3,effective
same,biological half life t1/2,[1]; 30 min iv,2.8 hours
same,MTD,Single-dose MTD study,20 mg/kg
same,maximum average body weight loss,"[2]; iv Q4D×3, 5 mg/kg/inj",0%
same,maximum average body weight loss,"[2]; iv Q4D×3, 10 mg/kg/inj",0%
same,maximum tolerated dosage (MTD),"[2]; iv Q4D×3, not more than 10% deaths, no more than 20% average body weight loss",15 mg/kg/inj
same,deaths,"[2]; non-tumor-bearing mice, iv Q4D×3, dosages of 15, 10, and 5 mg/kg/inj",no deaths; also recorded: without deaths
same,growth delay compared with PEG-topotecan at the same dosage,[3]; 1.0 mg/kg/dose,significantly greater
same,deaths,[3]; 1.0 mg/kg/dose iv q4d×3,without deaths
same,deaths,[3]; 2.5 mg/kg/dose iv q4d×3,without deaths
same,deaths,[3]; 10 mg/kg/dose iv q4d×3,one
same,detectability of topotecan in plasma,[4],undetectable beyond 24 hr post-injection
same,concentration at 5 day,in vivo,< 1000 ng/g
same,tumor growth inhibition / delay,[5],only minimal tumor growth delay; also recorded: delayed modestly
camptothecin sodium,biological half life t1/2,[1]; bolus iv,15.3 hours
